Values joined by “and” are separate entries in the source; they are usually repeats but may differ in a detail not shown here. Identical values can stand only once. Like-named read-outs stand apart in the source and are kept apart here.
Legend:
[1] = tested on: Triticum aestivum (spring wheat, TRZAS); assay type: in vivo
[2] = tested on: Papaver rhoeas (corn poppy), herbicide-resistant (PAPRH-R); test: Greenhouse postemergence trial PAPRH-R; assay type: in vivo
[3] = tested on: Matricaria discoidea (pineapple weed, MATMT); test: Greenhouse postemergence trial MATMT; assay type: in vivo
Description: (§1) Seeds of the desired test plant species were planted in a 90:10% v/v (volume/volume) mixture of PRO-MIX® BX (Premier Tech Horticulture, Quakertown, PA, USA) and PROFILE® GREENS GRADE™ (Profile Products LLC, Buffalo Grove, IL, USA) planting mixture, which typically has a pH of 5.2 to 6.2 and an organic matter content of at least 50 percent, in plastic pots with a surface area of 103.2 square centimeters (cm^2). […] The plants were grown for 7-36 days (d) in a greenhouse with an approximate 14-hour (h) photo-period which was maintained at about 23° C. during the day and 22° C. during the night. Nutrients and water were added on a regular basis and supplemental lighting was provided with overhead metal halide 1000-Watt lamps as necessary. The plants were employed for testing when they reached the second or third true leaf stage.
(§2) Emulsifiable concentrates of each of each pyridine carboxylate herbicide (Compound A or Compound B) were prepared at 100 grams acid equivalent per liter (g ae/L). The emulsifiable concentrates also included a safener, cloquintocet-mexyl, at 120 grams active ingredient per liter (g ai/L), unless otherwise noted below. An aliquot of each emulsifiable concentrate was placed in a 25 mL glass vial and diluted with an aqueous mixture of 1.25% (v/v) ACTIROB® B esterified rapeseed oil (Bayer Crop Science, Research Triangle Park, NC, USA) or MSO® Concentrate with LECI-TECH® methylated soybean oil (Loveland Products, Loveland, CO, USA) to obtain concentrated stock solutions at the highest application rate for each herbicide, based upon a 12 milliliter (mL) application volume at a rate of 187 liters per hectare (L/ha). The concentrated stock solutions were further diluted with an aqueous mixture of 1.25% v/v ACTIROB® B or MSO® Concentrate with LECI-TECH® to obtain stock solutions at reduced application rates for each herbicide. Spray solutions of the herbicide combinations (Compound A or Compound B plus synthetic auxin herbicide or auxin transport inhibitor) were prepared by adding weighed amounts or aliquots of the synthetic auxin herbicide or auxin transport inhibitor to the stock solutions of Compound A or Compound B to form 12-mL spray solutions in two-way combinations.
(§3) The spray solutions were applied to the plant material with an overhead Mandel track sprayer equipped with 8002E nozzles calibrated to deliver 187 L/ha over an application area of 0.503 square meters (m^2) at a spray height of 18 inches (43 centimeters (cm)) above the average plant canopy. Control plants were sprayed in the same manner with the solvent blank. All pyridine carboxylate herbicide (component a) application rates are given as “g ae/ha” and all synthetic auxin herbicide or auxin transport inhibitor (component b) application rates are given as “g ai/ha.”
(§4) The treated plants and control plants were placed in a greenhouse as described above and watered by sub-irrigation to prevent wash-off of the test compounds. After 20-22 d, the condition of the test plants as compared with that of the control plants was determined visually and scored on a scale of 0 to 100 percent where 0 corresponds to no injury and 100 corresponds to complete kill.

[4] = tested on: Ipomoea hederacea (ivyleaf morningglory, IPOHE); test: Greenhouse postemergence trial IPOHE; assay type: in vivo
[5] = tested on: Veronica persica (bird's-eye speedwell, VERPE); test: Greenhouse postemergence trial VERPE; assay type: in vivo
[6] = tested on: Cirsium arvense (Canadian thistle, CIRAR); test: Greenhouse postemergence trial CIRAR; assay type: in vivo
[7] = tested on: Stellaria media (chickweed, STEME); test: Greenhouse postemergence trial STEME; assay type: in vivo
[8] = tested on: Veronica hederifolia (ivyleaf speedwell, VERHE); test: Greenhouse postemergence trial VERHE; assay type: in vivo
Description: as §1, §2, §3, §4

[9] = tested on: Viola tricolor (wild pansy, VIOTR); test: Greenhouse postemergence trial VIOTR;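 further: greenhouse plants sprayed at second to third true leaf stage, injury rated visually after 20-22 d against solvent-blank sprayed controls, 0 meaning no injury and 100 complete kill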
Description: as §1, §2, §3, §4

[10] = tested on: Hordeum vulgare (spring barley, HORVS); assay type: in vivo
[11] = tested on: Chenopodium album L. (common lambsquarters, CHEAL); test: Greenhouse postemergence trial CHEAL; assay type: in vivo;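 further: greenhouse plants sprayed at second to third true leaf stage, injury rated by eye after 20-22 d versus solvent-blank sprayed controls, 0 = no injury, 100 = complete kill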
[12] = tested on: Matricaria chamomilla (wild chamomile, MATCH); test: Greenhouse postemergence trial MATCH; assay type: in vivo;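 further: greenhouse plants sprayed at second to third true leaf stage, injury rated by eye 20-22 d later versus solvent-blank controls on 0–100 scale, 0 no injury, 100 complete kill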
[13] = tested on: Abutilon theophrasti (velvetleaf, ABUTH); test: Greenhouse postemergence trial ABUTH; assay type: in vivo
Description: as §1, §2, §3, §4

[14] = tested on: Amaranthus retroflexus (pigweed, AMARE); test: Greenhouse postemergence trial AMARE; assay type: in vivo;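 further: Greenhouse-grown plants sprayed at second to third true leaf stage, injury rated by eye after 20-22 d versus solvent-blank sprayed controls, 0 = no injury, 100 = complete kill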
Description: The plants were grown for 7-36 days (d) in a greenhouse with an approximate 14-hour (h) photo-period which was maintained at about 23° C. during the day and 22° C. during the night. Nutrients and water were added on a regular basis and supplemental lighting was provided with overhead metal halide 1000-Watt lamps as necessary. The plants were employed for testing when they reached the second or third true leaf stage.
The emulsifiable concentrates also included a safener, cloquintocet-mexyl, at 120 grams active ingredient per liter (g ai/L), unless otherwise noted below.
Control plants were sprayed in the same manner with the solvent blank. All pyridine carboxylate herbicide (component a) application rates are given as “g ae/ha” and all synthetic auxin herbicide or auxin transport inhibitor (component b) application rates are given as “g ai/ha.”
as §4

[15] = tested on: Brassica napus (winter rape, BRSNW); test: Greenhouse postemergence trial BRSNW; assay type: in vivo
[16] = tested on: Glycine max (volunteer soybean, GLXMA); test: Greenhouse postemergence trial GLXMA; assay type: in vivo
Description: as §1, §2, §3, §4

[17] = tested on: Polygonum convolvulus (wild buckwheat, POLCO); test: Greenhouse postemergence trial POLCO; assay type: in vivo
Description: as §1, §2, §3, §4

[18] = tested on: Kochia scoparia (kochia, KCHSC); test: Greenhouse postemergence trial KCHSC; assay type: in vivo
Description: as §1, §2, §3, §4

[19] = tested on: Rumex obtusifolius (broad-leaf dock, RUMOB); test: Greenhouse postemergence trial RUMOB; assay type: in vivo
[20] = tested on: Helianthus annuus (common sunflower, HELAN); test: Greenhouse postemergence trial HELAN; assay type: in vivo
Description: as §1, §2, §3, §4

[21] = tested on: Papaver rhoeas (corn poppy, PAPRH); test: Greenhouse postemergence trial PAPRH; assay type: in vivo; settings: c1-3 Compound A 7.5/10/15; c4-5 Fluroxypyr-MHE 100/140; c6-8, c9-11 A 7.5/10/15 + Fluroxypyr-MHE 100, 140 g/ha
[22] = tested on: Hordeum vulgare (winter barley, HORVW); test: Greenhouse postemergence crop phytotoxicity HORVW; assay type: in vivo; settings: c1-3 Compound A 7.5/10/15; c4-5 Fluroxypyr-MHE 100/140; c6-8, c9-11 A 7.5/10/15 + Fluroxypyr-MHE 100, 140 g/ha
[23] = tested on: Capsella bursa-pastoris (shepherd's purse, CAPBP); test: Greenhouse postemergence trial CAPBP; assay type: in vivo; settings: c1-3 Compound A 7.5/10/15; c4-5 Fluroxypyr-MHE 100/140; c6-8, c9-11 A 7.5/10/15 + Fluroxypyr-MHE 100, 140 g/ha
[24] = tested on: Matricaria inodora (false chamomile, MATIN); test: Greenhouse postemergence trial MATIN; assay type: in vivo; settings: c1-3 Compound A 7.5/10/15; c4-5 Fluroxypyr-MHE 100/140; c6-8, c9-11 A 7.5/10/15 + Fluroxypyr-MHE 100, 140 g/ha
[25] = tested on: Cyanus segetum (cornflower, CENCY); test: Greenhouse postemergence trial CENCY; assay type: in vivo; settings: c1-3 Compound A 7.5/10/15; c4-5 Fluroxypyr-MHE 100/140; c6-8, c9-11 A 7.5/10/15 + Fluroxypyr-MHE 100, 140 g/ha
Description: as §1, §2, §3, §4

[26] = tested on: Lamium purpureum (purple deadnettle, LAMPU); test: Greenhouse postemergence trial LAMPU; settings: c1-3 Compound A 7.5/10/15; c4-5 Fluroxypyr-MHE 100/140; c6-8, c9-11 A 7.5/10/15 + Fluroxypyr-MHE 100, 140 g/ha
[27] = tested on: Anthemis arvensis (field chamomile, ANTAR); test: Greenhouse postemergence trial ANTAR; assay type: in vivo; settings: c1-3 Compound A 7.5/10/15; c4-5 Fluroxypyr-MHE 100/140; c6-8, c9-11 A 7.5/10/15 + Fluroxypyr-MHE 100, 140 g/ha
[28] = tested on: Galium aparine (cleavers, GALAP); test: Greenhouse postemergence trial GALAP; assay type: in vivo; settings: c1-3 Compound A 7.5/10/15; c4-5 Fluroxypyr-MHE 100/140; c6-8, c9-11 A 7.5/10/15 + Fluroxypyr-MHE 100, 140 g/ha
Description: as §1, §2, §3, §4

[29] = tested on: Triticum aestivum (winter wheat, TRZAW); test: Greenhouse postemergence crop phytotoxicity TRZAW; assay type: in vivo; settings: c1-3 Compound A 7.5/10/15; c4-5 Fluroxypyr-MHE 100/140; c6-8, c9-11 A 7.5/10/15 + Fluroxypyr-MHE 100, 140 g/ha
[30] = tested on: Viola arvensis (field violet, VIOAR); test: Greenhouse postemergence trial VIOAR; assay type: in vivo; settings: c1-3 Compound A 7.5/10/15; c4-5 Fluroxypyr-MHE 100/140; c6-8, c9-11 A 7.5/10/15 + Fluroxypyr-MHE 100, 140 g/ha
[31] = c1-3 Compound A 7.5/10/15, c4-5 Fluroxypyr-MHE 100/140, c6-8, c9-11 A 7.5/10/15 + Fluroxypyr-MHE 100, 140 g/ha

C#CCOC(=O)c1nc(-c2ccc3cc[nH]c3c2F)c(F)c(N)c1Cl [Compound B, propargyl 4-amino-3-chloro-5-fluoro-6-(7-fluoro-1H-indol-6-yl)pyridine-2-carboxylate]
TRZAS % visual injury Obs ([1]; Compound B 10 g/ha (Table 36)): 0%
TRZAS % visual injury Obs ([1]; Compound B 10 g/ha (Table 37)): 0%
% visual injury, Obs ([1]; TRZAS, applied alone, 10 g/ha): 0%
PAPRH-R % visual injury Obs ([2]; Compound B 10 g/ha (Table 38)): 95%
PAPRH-R % visual injury Obs ([2]; Compound B 10 g/ha (Table 39)): 95%
MATMT % visual injury Obs ([3]; Compound B 10 g/ha (Table 38)): 20%
MATMT % visual injury Obs ([3]; Compound B 10 g/ha (Table 39)): 20%
IPOHE % visual injury Obs ([4]; Compound B 10 g/ha (Table 40)): 0%
IPOHE % visual injury Obs ([4]; Compound B 10 g/ha (Table 41)): 0%
VERVE % visual injury Obs ([5]; Compound B 10 g/ha (Table 39)): 80%
CIRAR % visual injury Obs ([6]; Compound B 10 g/ha (Table 36)): 25%
CIRAR % visual injury Obs ([6]; Compound B 10 g/ha (Table 37)): 25%
CIRAR % visual injury Obs ([6]; Compound B 10 g/ha (Table 40)): 55%
CIRAR % visual injury Obs ([6]; Compound B 10 g/ha (Table 41)): 55%
STEME % visual injury Obs ([7]; Compound B 10 g/ha (Table 40)): 90%
STEME % visual injury Obs ([7]; Compound B 10 g/ha (Table 41)): 90%
VERHE % visual injury Obs ([8]; Compound B 10 g/ha (Table 39)): 70%
VIOTR % visual injury Obs ([9]; Compound B 10 g/ha (Table 40)): 8%
VIOTR % visual injury Obs ([9]; Compound B 10 g/ha (Table 41)): 8%
HORVS % visual injury Obs ([10]; Compound B 10 g/ha (Table 36)): 0%
HORVS % visual injury Obs ([10]; Compound B 10 g/ha (Table 37)): 0%
% visual injury, Obs ([10]; HORVS, applied alone, 10 g/ha): 0%
CHEAL % visual injury Obs ([11]; Compound B 10 g/ha (Table 40)): 93%
CHEAL % visual injury Obs ([11]; Compound B 10 g/ha (Table 41)): 93%
MATCH % visual injury Obs ([12]; Compound B 10 g/ha (Table 39)): 20%
% visual injury, Obs ([12]; MATCH, applied alone, 10 g/ha): 18%
ABUTH % visual injury Obs ([13]; Compound B 10 g/ha (Table 40)): 68%
ABUTH % visual injury Obs ([13]; Compound B 10 g/ha (Table 41)): 68%
% visual injury, Obs ([14]; AMARE, applied alone, 10 g/ha): 84%
AMARE % visual injury Obs ([14]; Compound B 10 g/ha (Table 36)): 84%
AMARE % visual injury Obs ([14]; Compound B 10 g/ha (Table 40)): 73%
AMARE % visual injury Obs ([14]; Compound B 10 g/ha (Table 41)): 73%
plant injury at 10 g/ha ([15]; Brassica napus, post-emergence, BRSNW, applied alone, 10 g/ha, read-out: % visual injury, Obs): 73%
BRSNW % visual injury Obs ([15]; Compound B 10 g/ha (Table 36)): 73%
BRSNW % visual injury Obs ([15]; Compound B 10 g/ha (Table 37)): 73%
BRSNW % visual injury Obs ([15]; Compound B 10 g/ha (Table 39)): 93%
GLXMA % visual injury Obs ([16]; Compound B 10 g/ha (Table 40)): 73%
GLXMA % visual injury Obs ([16]; Compound B 10 g/ha (Table 41)): 73%
POLCO % visual injury Obs ([17]; Compound B 10 g/ha (Table 36)): 97%
POLCO % visual injury Obs ([17]; Compound B 10 g/ha (Table 40)): 90%
POLCO % visual injury Obs ([17]; Compound B 10 g/ha (Table 41)): 90%
KCHSC % visual injury Obs ([18]; Compound B 10 g/ha (Table 40)): 73%
KCHSC % visual injury Obs ([18]; Compound B 10 g/ha (Table 41)): 73%
RUMOB % visual injury Obs ([19]; Compound B 10 g/ha (Table 40)): 15%
RUMOB % visual injury Obs ([19]; Compound B 10 g/ha (Table 41)): 15%
HELAN % visual injury Obs ([20]; Compound B 10 g/ha (Table 40)): 100%
HELAN % visual injury Obs ([20]; Compound B 10 g/ha (Table 41)): 100%

CCCCCCC(C)OC(=O)COc1nc(F)c(Cl)c(N)c1Cl (centres unmarked) [Fluroxypyr-MHE, fluroxypyr-meptyl, reference compound]
% visual injury (crop phytotoxicity) [1, 31]: 0%
% visual injury [2, 31]: 10%
% visual injury [3, 31]: 0%
% visual injury [21]: 10%
% visual injury [5, 31]: 70% and 85%
% visual injury (crop phytotoxicity) [22]: 0%
% visual injury [23]: 0%
% visual injury [7, 31]: 70% and 75%
% visual injury [24]: 10% and 15%
% visual injury [8, 31]: 30% and 60%
% visual injury [9, 31]: 50%
% visual injury (crop phytotoxicity) [10, 31]: 0%
% visual injury [25]: 60% and 95%
% visual injury [26]: 60% and 65%
% visual injury [27]: 30% and 35%
% visual injury [28]: 85% and 95%
% visual injury (crop phytotoxicity) [29]: 0%
% visual injury [30]: 20%
